Test results from paper PMC6985722 (Antimicrobial Agents and Chemotherapy, 2020).

Tests used:
[1] = 76 healthy adult males; single and multiple ascending dose; cited from earlier work
[2] = test system: RSV-B (panel of 10 clinical strains); assay: In vitro susceptibility of RSV by plaque assay, RSV-B; format: cell-based; details: human respiratory syncytial virus
Method: Previous RSV challenge studies achieved antiviral efficacy with peripheral blood trough exposure levels over 3× the protein binding-adjusted in vitro EC90 ([12]). Based on the phase 1 PK data, this level of exposure was predicted to be achieved on or after the first dose in the majority of subjects with a 200-mg dose and to be met or exceeded on or after the first dose in all subjects with a 350-mg dose. The in vitro EC90 was determined using a panel of clinical isolates of RSV (Table S7).
EC50 range (nM) EC90 range (nM)
EC50 and EC 90 were determined by plaque assay.
EC50, 50% effective concentration; EC90, 90% effective concentration; RSV, respiratory

[3] = test system: RSV-B isolates; parameters: method as in ref 16 = [16]; 16. Cockerill GS , Bedernjak A , Brookes D , Dowey R , Harland R , Johnson SM , Mathews N , Paradowski M , Peeples M , Scott C , Steadman M , Taylor G , Thom M , Thomas E , Ward SE , Watterson D , You; details: n = 16 isolates; cited from earlier work
[4] = test system: RSV-A Memphis-37b; assay: RSV human challenge study: disease severity (total symptom score, nasal mucus weight); format: in vivo
Method: Subjects were screened outside the RSV season for eligibility, including measurement of RSV-A Memphis-37b-specific neutralizing antibody titer, ≤90 days before virus challenge. Eligible subjects were admitted to the quarantine unit on day −2 or day −1 and were inoculated intranasally on day 0 with the challenge virus, RSV-A Memphis-37b (4 log10 PFU/ml, given as one 0.4-ml installation per naris), as previously described ([26]). Nasal wash sampling every 12 h for confirmation of RSV infection by qualitative integrated cycler PCR ([12], [19]) began on the morning of day 2. Treatment began 12 h (±1 h) after collection of a nasal wash sample confirming RSV infection or on the evening of day 5 if RSV infection remained unconfirmed by the morning of day 5.
The study comprised two consecutive cohorts. […] Subjects were discharged on day 12 if nasopharyngeal swab samples tested negative by RSV rapid antigen assay (QuickVue RSV test; Quidel, San Diego, CA, USA). If such tests were positive or if a subject remained symptomatic, quarantine was extended to allow further observation. All subjects were evaluated on day 28 (±3 days).
Twice-daily collection of nasal wash samples allowed measurement of viral load via RT-qPCR and quantitative culture. RT-qPCR results were reported as PFUe/ml when the standard curve included in each assay contained a known infectious amount (PFU) of RSV, as described previously ([30]). Subjects reported the occurrence and severity of symptoms three times daily using a 10-item subject symptom diary card as previously reported ([12]) (see Supplemental Methods). Throughout the quarantine period, used tissues were collected and weighed daily, and total nasal mucus weight was recorded. PK assessments were based on venous blood samples. Safety assessments included measurement of vital signs, standard 12-lead ECG recordings, spirometry, a complete physical examination, and a respiratory-directed physical examination. AEs were monitored daily, coded according to the Medical Dictionary for Regulatory Activities Version 20.0, and graded according to the National Cancer Institute Common Terminology Criteria for Adverse Events Version 4.0 (see Supplemental Methods for further details).
The primary efficacy endpoint was AUC for RSV viral load, as measured by RT-qPCR, in nasal wash samples taken twice daily from just before the first dose until discharge (day 12). Viral load data were provided as log10 PFUe/ml; AUC (log10 PFUe/ml · h) was calculated using the trapezoid rule. Secondary efficacy endpoints related to viral load were AUC of RSV viral load, as assessed by quantitative culture, and the following measures, which were each assessed using both RT-qPCR and quantitative culture: peak viral load, time to peak viral load, and time to <1 log10 (for RT-qPCR) or undetectable (for quantitative culture) viral load (considered to occur at the first confirmed undetectable assessment after which no further virus was detected). Secondary efficacy endpoints related to clinical symptoms included AUC total symptom score; peak total symptom score; time to peak total symptom score; and the total weight of nasal mucus produced. Other secondary outcomes were safety, PK, and sequence detection of viral variants (see Supplemental Methods).
All statistical analyses were performed using two-sided testing. Student’s t tests were performed for normally distributed data with a constant variance; otherwise, the Satterthwaite t test or nonparametric tests were used. For the mucus weight analysis, the least-squares mean was calculated from a mixed model with repeated measures, adjusted for baseline mucus weight and treatment group as covariates and subject as a random effect.

NCc1ccc2c(c1)nc(CN1C(=O)C3(CC3)c3ccc(F)cc31)n2CCCC(F)(F)F [RV521]
Tolerability [1]: well tolerated
EC50 ([2]; read-out: EC50 range): 0.4 to 1.4 nM
EC90 ([2]; read-out: EC90 range): 2 to 10.4 nM
IC50 [3]: 1 nM
AUC of total symptom score, mean (SE) ([4]; 200 mg, ITT-A): 117.9 (35.26) score x hours
AUC of total symptom score, reduction in mean vs placebo ([4]; 200 mg, ITT-A): 73.06%
Daily nasal mucus weight, LS mean ([4]; 200 mg, ITT-A): 0.32 g
Peak total symptom score, mean (SE) ([4]; 200 mg, ITT-A): 2.5 (0.49)
Time to peak total symptom score, mean (SE) ([4]; 200 mg, ITT-A): 1.82 (0.67) days
Time to resolution from peak total symptom score, mean (SE) ([4]; 200 mg, ITT-A): 2.73 (0.39) days
AUC of total symptom score, mean (SE) ([4]; 200 mg, ITT-A, fixed time period of 6.5 days): 117.41 (35.26) score x hours
AUC total symptom score, mean (SE) ([4]; 200 mg, ITT-I): 111.35 (33.88) score × hours
Daily nasal mucus weight, LS mean ([4]; 200 mg, ITT-I): 0.33 g
Time to peak total symptom score, mean (SE) ([4]; 200 mg, ITT-I): 2.08 (0.68) days
AUC of total symptom score, mean (SE) ([4]; 200 mg, ITT-I, fixed time period of 6.5 days): 111.35 (33.88) score x hours
AUC of total symptom score, mean (SE) ([4]; 350 mg, ITT-A): 92.98 (26.81) score x hours
AUC of total symptom score, reduction in mean vs placebo ([4]; 350 mg, ITT-A): 78.75%
Daily nasal mucus weight, LS mean ([4]; 350 mg, ITT-A): 0.26 g
Peak total symptom score, mean (SE) ([4]; 350 mg, ITT-A): 2.1 (0.49)
Time to peak total symptom score, mean (SE) ([4]; 350 mg, ITT-A): 1.26 (0.55) days
Time to resolution from peak total symptom score, mean (SE) ([4]; 350 mg, ITT-A): 2.44 (0.43) days
AUC of total symptom score, mean (SE) ([4]; 350 mg, ITT-A, fixed time period of 6.5 days): 92.98 (26.81) score x hours
AUC total symptom score, mean (SE) ([4]; 350 mg, ITT-I): 82.41 (24.45) score × hours
Daily nasal mucus weight, LS mean ([4]; 350 mg, ITT-I): 0.27 g
Time to peak total symptom score, mean (SE) ([4]; 350 mg, ITT-I): 1.56 (0.57) days
AUC of total symptom score, mean (SE) ([4]; 350 mg, ITT-I, fixed time period of 6.5 days): 82.41 (24.45) score x hours
